Data on 18 compounds can be found in patent publication US10239829B2, “Antagonists of the glucagon receptor” (Metabasis Therapeutics, Inc., priority 2007, dated 2019).

One assay relates to db/db mice. The assay is described as follows: Glucose lowering in db/db mice. In kind it is in vivo, mouse. Particulars: freely-feeding; for inhibition in vivo at 30 mg/kg / inhibition in vivo at 100 mg/kg: Mus musculus, oral gavage, 100% = normalization to lean db/+ mice; for Glucose lowering: vs vehicle-treated db/db mice. On the procedure: Purpose: To assess the effects of compounds of the invention on blood glucose levels in the db/db mouse, an animal model of type 2 diabetes.
Methods: Compounds were dissolved in polyethylene glycol-400 and administered by oral gavage to db/db mice in the freely-feeding state at doses of 30 and/or 100 mg/kg. Blood glucose levels were assessed in blood samples obtained by tail bleed at baseline (prior to drug administration) and at regular time intervals over 24 hours using a portable glucometer such as the OneTouch or HemoCue meters. The magnitude of blood glucose lowering elicited by the compounds of the invention was determined by comparison to those in db/db mice administered only the vehicle. The percentage glucose lowering was calculated by factoring in the blood glucose levels of vehicle-treated lean db/+(heterozygote) mice, with 100% representing the normalization of blood glucose levels from the hyperglycemic state (vehicle-treated db/db mice) to the normoglycemic state (vehicle-treated db/+ mice).

Assay [1] has as its system glucagon-challenged Beagle dogs. The assay is described as follows: Glucose lowering in glucagon-challenged Beagle dogs. In kind it is in vivo, dog. The settings on record: Beagle dogs (n=3), oral gavage 38 mg/kg in PEG-400, glucagon 20 μg s.c. after 1.5 hours. The procedure: Purpose: To assess the effects of compounds of the invention on blood glucose levels in glucagon-challenged Beagle dogs.
Methods: Beagle dogs (n=3) were treated with vehicle (polyethylenelglycol-400) by oral gavage. After 1.5 hours, glucagon (20 μg) was administered subcutaneously. Blood glucose levels were measured prior to glucagon administration and at 10-minute intervals thereafter for up to an hour. Blood samples for these determinations were obtained from a superficial ear vein and were measured using a OneTouch glucometer. After a 1-week washout, the animals were treated by oral gavage with the compound of Example 2.009 at a dose of 38 mg/kg (polyethylenelglycol-400 formulation). The glucagon challenge and blood sampling were then performed as before.

Setting [2] is: oral gavage in PEG-400, dose 30 mg/Kg.
The mark [3] stands for this setting: oral gavage in PEG-400, dose 100 mg/Kg.

Consider `CC(C)(C)COc1ccc(C(Cc2ccc(C(=O)NCCS(=O)(=O)O)cc2)C(=O)Nc2ccc(-c3ccc(C(F)(F)F)cc3Cl)cc2)cc1` (centres unmarked) [Example 1.314], for which the inhibition in vivo (as a rule, how much of the control response was suppressed) at 30 mg/kg in the assay with db/db mice was found to be 40%. In addition, in the assay on db/db mice (setting [2]), the “Glucose lowering” value came to 95 mg/dL.
The matching figures for `Cc1cc(NC(=O)C(Cc2ccc(C(=O)NCCS(=O)(=O)O)cc2)c2ccc(OCC(C)(C)C)cc2)ccc1-c1ccc(C(F)(F)F)cc1C` (centres unmarked) [Example 1.311]: 36% and 109 mg/dL.
The like results for `CC(C)(C)/C=C/c1ccc(C(Cc2ccc(C(=O)NCCS(=O)(=O)[O-])cc2)C(=O)Nc2ccc(-c3cc4ccccc4o3)cc2)cc1.[Na+]` (centres unmarked) [Example 1.052] were, in that order, 61% and 147 mg/dL.
The matching figures for `CC(C)(C)COc1ccc(C(Cc2ccc(C(=O)NCCS(=O)(=O)O)cc2)C(=O)Nc2ccc(-c3ccc(Cl)cc3Cl)cc2)cc1.[Na+]` (centres unmarked) [Example 1.136]: 16% and 47 mg/dL.
As to `O=C(NCCS(=O)(=O)O)c1ccc(CC(C(=O)Nc2ccc(-c3cc4ccccc4o3)cc2Cl)c2ccc(OC(F)(F)F)cc2)cc1` (centres unmarked) [Example 1.155], the inhibition in vivo at 30 mg/kg in the assay on db/db mice is 49%. In addition, the “Glucose lowering” value in the assay with db/db mice (setting [2]) came to 108 mg/dL.
The like results for `CC(C)(C)C1CC=C(c2ccc(C(Cc3ccc(C(=O)NCCS(=O)(=O)O)cc3)C(=O)Nc3ccc(-c4ccc(C(F)(F)F)cc4Cl)cc3)cc2)CC1` (centres unmarked) [Example 1.270] were, in that order, 24% and 63 mg/dL.
The like results for `CC(c1ccc(C(=O)NCCS(=O)(=O)[O-])cc1)C(C(=O)Nc1ccc(-c2ccc(Cl)cc2Cl)cc1)c1ccc(/C=C/C(C)(C)C)cc1.[Na+]` (centres unmarked) [Example 1.137] were, in that order, 53% and 159 mg/dL.
The matching figures for `Cc1cc(C(F)(F)F)ccc1-c1ccc(NC(=O)C(Cc2ccc(C(=O)NCCS(=O)(=O)O)cc2)c2ccc(/C=C/C(C)(C)C)cc2)cc1` (centres unmarked) [Example 1.320]: 39% and 121 mg/dL.
Turning to `Cc1cc(C(F)(F)F)ccc1-c1ccc(NC(=O)C(Cc2ccc(C(=O)NCCS(=O)(=O)O)cc2)c2ccc(/C=C/C(C)(C)C)cc2)cc1Cl` (centres unmarked) [Example 1.173], the inhibition in vivo at 30 mg/kg in the assay on db/db mice was 50%. Also, the “Glucose lowering” value in the assay on db/db mice (setting [2]) is recorded as 172 mg/dL.
Compound `Cc1cc(Cl)ccc1-c1ccc(NC(=O)C(Cc2ccc(C(=O)NCCS(=O)(=O)O)cc2)c2ccc(C3=CCC(C(C)(C)C)CC3)cc2)cc1` (centres unmarked) [Example 1.269] yielded an inhibition in vivo at 30 mg/kg in the assay on db/db mice of 42%. For the same compound, the “Glucose lowering” value in the assay with db/db mice (setting [2]) amounted to 124 mg/dL.
Turning to `CC(C)(C)C1CCC(C(Cc2ccc(C(=O)NCCS(=O)(=O)[O-])cc2)C(=O)Nc2ccc(-c3ccc(Cl)cc3Cl)cc2)CC1.[Na+]` (centres unmarked) [Example 1.138], testing at 30 mg/kg in the assay with db/db mice gave an inhibition in vivo of 6%. In addition, the “Glucose lowering” value with db/db mice (setting [2]) was found to be 19 mg/dL.
The like results for `CCC(c1ccc(C(=O)NCCS(=O)(=O)O)cc1)C(C(=O)Nc1ccc(-c2ccc(Cl)cc2Cl)cc1)c1ccc(/C=C/C(C)(C)C)cc1` (centres unmarked) [Example 1.315] were, in that order, 57% and 172 mg/dL.
The like results for `CC(C)(C)/C=C/c1ccc(C(Cc2ccc(C(=O)NCCS(=O)(=O)O)cc2)C(=O)Nc2ccc(C3=Cc4ccccc4C3)cc2)cc1` (centres unmarked) [Example 1.321] were, in that order, 68% and 161 mg/dL.
In turn, `CC(C)(C)/C=C/c1ccc(C(Cc2ccc(C(=O)NCCS(=O)(=O)[O-])cc2)C(=O)Nc2ccc(-c3ccc(C(F)(F)F)cc3Cl)cc2)cc1.[Na+]` (centres unmarked) [Example 1.135] displayed an inhibition in vivo at 100 mg/kg with db/db mice of 41%. The “Glucose lowering” value in the assay with db/db mice (setting [3]) amounted to 131 mg/dL.
In the assay on db/db mice, `CC(C)(C)/C=C/c1ccc(C(Cc2ccc(C(=O)NCCS(=O)(=O)[O-])cc2)C(=O)Nc2ccc(-c3ccc(Cl)cc3Cl)cc2)cc1.[Na+]` (centres unmarked) [Example 1.133] showed an inhibition in vivo at 30 mg/kg of 57%. For the same compound, the “Glucose lowering” value with db/db mice (setting [2]) amounted to 157 mg/dL.
The like results for `Cc1cc(NC(=O)C(Cc2ccc(C(=O)NCCS(=O)(=O)O)cc2)c2ccc(/C=C/C(C)(C)C)cc2)ccc1-c1ccc(C(F)(F)F)cc1Cl` (centres unmarked) [Example 1.179] were, in that order, 34% and 102 mg/dL.
`Cc1cc(Cl)ccc1-c1ccc(NC(=O)C(Cc2ccc(C(=O)NCCS(=O)(=O)O)cc2)c2ccc(/C=C/C(C)(C)C)cc2)cc1Cl` (centres unmarked) [Example 1.359] showed an inhibition in vivo at 100 mg/kg in the assay with db/db mice of 48%. Also, the “Glucose lowering” value with db/db mice (setting [3]) is 150 mg/dL.
For `CC(C)(C)c1ccc(C(Cc2ccc(C(=O)NCCS(=O)(=O)[O-])cc2)c2cc(-c3cccc(-c4ccc(Cl)cc4)c3)on2)cc1.[Na+]` (centres unmarked) [Example 2.009], the “attenuation of the glucagon-induced glucose excursion” value in assay [1] is reported as “approximately 40%”.
